Source: patent US10550102B2, “Indane and indoline derivatives and the use thereof as soluble guanylate cyclase activators” (NOVARTIS AG, priority 2014, dated 2020)
pEC50: −log10 of the molar value.

Each compound was assayed against soluble guanylate cyclase (human GUCYA3 and GUCYB3) overexpressed in CHO cells (Homo sapiens (Human), UniProt Q02108+Q02153) (assay: CHO cellular assay (cGMP production, Cisbio cGMP HTRF kit)). Settings: CHO GUCY clone 8E10, cGMP production, assay buffer with 1 mM IBMX and 20 uM ODQ, 1 h room temperature; minimum quantification limit 0.5 nM (listed 0.5 nM means ≤0.5 nM); read-out: EC50.
soluble guanylate cyclase (human GUCYA3 and GUCYB3) overexpressed in CHO cells, sequence (Q02108 whole entry partner): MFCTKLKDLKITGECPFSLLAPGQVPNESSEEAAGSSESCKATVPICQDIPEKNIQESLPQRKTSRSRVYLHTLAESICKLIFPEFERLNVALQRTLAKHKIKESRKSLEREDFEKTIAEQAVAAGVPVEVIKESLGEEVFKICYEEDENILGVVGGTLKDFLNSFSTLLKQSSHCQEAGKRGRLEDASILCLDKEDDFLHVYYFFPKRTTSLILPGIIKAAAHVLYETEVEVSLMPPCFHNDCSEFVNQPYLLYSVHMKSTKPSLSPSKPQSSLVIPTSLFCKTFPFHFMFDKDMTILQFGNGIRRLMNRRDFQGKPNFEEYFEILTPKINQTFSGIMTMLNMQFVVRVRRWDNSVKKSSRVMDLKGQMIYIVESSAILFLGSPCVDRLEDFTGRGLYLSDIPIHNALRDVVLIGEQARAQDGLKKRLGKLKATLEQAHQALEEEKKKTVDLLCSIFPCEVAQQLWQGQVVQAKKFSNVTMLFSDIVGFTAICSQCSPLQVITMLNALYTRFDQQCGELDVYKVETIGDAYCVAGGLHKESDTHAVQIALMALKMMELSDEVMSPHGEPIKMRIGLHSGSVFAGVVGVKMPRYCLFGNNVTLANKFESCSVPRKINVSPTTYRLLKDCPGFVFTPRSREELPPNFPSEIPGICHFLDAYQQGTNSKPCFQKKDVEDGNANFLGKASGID
soluble guanylate cyclase (human GUCYA3 and GUCYB3) overexpressed in CHO cells, sequence (Q02153 whole entry): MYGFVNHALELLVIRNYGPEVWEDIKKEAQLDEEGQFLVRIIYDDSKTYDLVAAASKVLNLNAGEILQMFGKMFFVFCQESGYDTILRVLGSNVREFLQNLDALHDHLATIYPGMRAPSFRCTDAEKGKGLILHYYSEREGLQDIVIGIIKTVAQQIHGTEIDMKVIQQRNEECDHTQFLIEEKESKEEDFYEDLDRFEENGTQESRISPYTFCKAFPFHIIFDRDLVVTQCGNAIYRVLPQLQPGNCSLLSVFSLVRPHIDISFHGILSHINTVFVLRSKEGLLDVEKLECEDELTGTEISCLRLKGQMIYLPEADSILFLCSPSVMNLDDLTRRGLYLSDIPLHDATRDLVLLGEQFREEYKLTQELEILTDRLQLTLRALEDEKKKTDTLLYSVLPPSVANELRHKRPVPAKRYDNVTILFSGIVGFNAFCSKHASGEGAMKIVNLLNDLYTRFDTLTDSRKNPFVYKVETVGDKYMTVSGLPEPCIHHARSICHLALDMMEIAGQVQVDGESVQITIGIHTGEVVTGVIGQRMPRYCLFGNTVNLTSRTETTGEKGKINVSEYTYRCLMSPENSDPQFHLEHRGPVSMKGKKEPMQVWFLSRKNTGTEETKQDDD
Assay type: cell-based
Excerpt: Chinese hamster ovary (CHO) cells overexpressing soluble guanylate cyclase were generated to test the effect of sGC activators in a cellular context. Human cDNAs for GUCYA3 (RefSeq: NM_000856.3) and GUCYB3 (RefSeq: NM_000857.1) were amplified by PCR from a HUVEC (Human Umbilical Vein Endothelial Cells) cDNA library and cloned into mammalian expression vectors. CHO K1 cells (ATCC CCL-61) were transfected using Lipofectamine 2000 following manufacturer's instructions and stably expressing clones were identified by antibiotic selection. CHO GUCY clone 8E10 was used for subsequent experiments. Cells were seeded at a density of 3000 cells/well in white 384-well proxyplates (Perkin Elmer) and incubated overnight, then the medium was removed and cells were washed with assay buffer (HBSS, 0.1% BSA. 1 mM IBMX, 20 uM ODQ). sGC activators were serially diluted in DMSO, then diluted in assay buffer prior to adding to cells (10 ul/well, final DMSO concentration 0.5%). Cells were incubated with compounds for 1 h room temperature, then assayed for cGMP production using Cisbio cGMP HTRF kit (62GM2PEC) according to manufacturer's instructions. The EC50s are calculated based on the amount of cGMP interpolated from the standard curve, using a 4-parameter sigmoidal dose-response.
Work on `Cc1cc(C2CCN(C(=O)CC3CC3)CC2)cc(F)c1NC1CCc2cccc(-c3cccc(-n4ncc(C(=O)O)c4C)n3)c21` (single isomer, unassigned; (+)) [(+)-53-3, (+)-1-(6-(3-((4-(1-(2-cyclopropyacetyl)piperidin-4-yl)-2-fluoro-6-methylphenyl)amino)-2,3-dihydro-1H-inden-4-yl)pyridin-2-yl)-5-methyl-1H-pyrazole-4-carboxylic acid] yielded a pEC50 of 8.46. Compound `Cc1cc(C2CCN(CC(F)(F)F)CC2)ccc1O[C@H]1CCc2cccc(-c3cccc(-n4ncc(C(=O)O)c4C(F)(F)F)n3)c21` [Example 5-4] has a pEC50 of 8.70. `CCc1cc(NC2CCc3cccc(-c4cccc(-n5ncc(C(=O)O)c5CC)n4)c32)ccc1C1CCN(C(=O)[C@H](C)O)CC1` (single isomer, unassigned; (+)) [Example 48a] was tested, and the pEC50 was ≥ 9.30. Compound `Cc1cc(C2CCN(C(=O)C3CC3)CC2)ccc1NC1CCc2cccc(-c3cccc(-n4ncc(C(=O)O)c4C(F)F)n3)c21` (single isomer, unassigned; (-)) [(−)-53-4, (−)-1-(6-(3-((4-(1-(cyclopropanecarbonyl)piperidin-4-yl)-2-methylphenyl)amino)-2,3-dihydro-1H-inden-4-yl)pyridin-2-yl)-5-(difluoromethyl)-1H-pyrazole-4-carboxylic acid] has a pEC50 of 7.62. In the case of `CCc1c(C(=O)O)cnn1-c1cccc(-c2cccc3c2N(Cc2ccc(C4CCN(C(=O)C5CC5)CC4)cc2C)CC3)n1` [Example 21-2, 1-(6-(1-(4-(1-(Cyclopropanecarbonyl)piperidin-4-yl)-2-methylbenzyl)indolin-7-yl)pyridin-2-yl)-5-ethyl-1H-pyrazole-4-carboxylic acid], the pEC50 was ≥ 9.30. `CCC[C@H](O)C(=O)N1CCC(c2ccc(NC3CCc4cccc(-c5cccc(-n6ncc(C(=O)O)c6CC)n5)c43)cc2CC)CC1` (single isomer, unassigned; (+)) [Example 49a] was tested, and the pEC50 was ≥ 9.30. For `CCc1cc(CN2CCc3cccc(-c4cccc(-n5ncc(C(=O)O)c5CC)n4)c32)ccc1C1CCN(CC(F)(F)F)CC1` [Example 16, 5-Ethyl-1-(6-(1-(3-ethyl-4-(1-(2,2,2-trifluoroethyl)piperidin-4-yl)benzyl)indolin-7-yl)pyridin-2-yl)-1H-pyrazole-4-carboxylic Acid], the pEC50 was 8.46. In the case of `CCc1cc(O[C@H]2CCc3cccc(-c4cccc(-n5ncc(C(=O)O)c5CC)n4)c32)ccc1C1CCN(C(=O)C2CC2)CC1` [Example 5-9], the pEC50 was ≥ 9.30. `CCc1cc(NC2CCc3cccc(-c4cccc(-n5ncc(C(=O)O)c5CC)n4)c32)ccc1C1CCN(C(=O)OC)CC1` (single isomer, unassigned; (-)) [(−)-52-2, (−)-5-Ethyl-1-(6-(3-((3-ethyl-4-(1-(methoxycarbonyl)piperidin-4-yl)phenyl)amino)-2,3-dihydro-1H-inden-4-yl)pyridin-2-yl)-1H-pyrazole-4-carboxylic acid] gave a pEC50 of 9.00. `CCc1cc(NC2CCc3cccc(-c4cccc(-n5ncc(C(=O)O)c5CC)n4)c32)ccc1C1CCN(C(=O)CC2CC2)CC1` (single isomer, unassigned; (+)) [(+)-53-2, (+)-1-(6-(3-((4-(1-(2-cyclopropylacetyl)piperidin-4-yl)-3-ethylphenyl)amino)-2,3-dihydro-1H-inden-4-yl)pyridin-2-yl)-5-ethyl-1H-pyrazole-4-carboxylic acid] was tested, and the pEC50 was 9.00. With `CCc1cc(NC2CCc3cccc(-c4cccc(-n5ncc(C(=O)O)c5CC)n4)c32)ccc1C1CCN(C(=O)OC)CC1` (single isomer, unassigned; (+)) [(+)-52-2, (+)-5-Ethyl-1-(6-(3-((3-ethyl-4-(1-(methoxycarbonyl)piperidin-4-yl)phenyl)amino)-2,3-dihydro-1H-inden-4-yl)pyridin-2-yl)-1H-pyrazole-4-carboxylic acid] the pEC50 was ≥ 9.30.

Same assay, conditions: EC50 (nM)
In the case of `CCc1cc(O[C@H]2CCc3cccc(-c4cccc(-n5ncc(C(=O)O)c5CC)n4)c32)ccc1C1CCN(C(=O)OC(C)C)CC1` [Example 64-3, (S)-5-Ethyl-1-(6-(3-(3-ethyl-4-(1-(isopropoxycarbonyl)piperidin-4-yl)phenoxy)-2,3-dihydro-1H-inden-4-yl)pyridin-2-yl)-1H-pyrazole-4-carboxylic acid], the EC50 was 1 nM.
